Results on 13 compounds are retold here after US7799955B2, “Isoflavone metabolites” (priority 1999, dated 2010).

In brackets after ≈: the same amount, converted by molar mass. Like-named read-outs stand apart in the source and are kept apart here.

The test system of experiment [1] is MCF-7 cells. In words: MTS in vitro cytotoxicity / cell viability assay on MCF-7 breast cancer cells. It is filed as cell-based. Particulars: for IC50: Homo sapiens; for inhibition of MCF7 cells at low concentration / proliferative activity of cancer cells at low concentration: concentrations of less than or equal to 10 μM. The protocol: Compound A was compared with genistein to test the cell viability of MCF-7 cells. […] The cell viability was tested using the MTS in vitro cytotoxicity assay. This is considered the most convenient assay because of its ease of use, accuracy and rapid indication of toxicity (Malich G et al., Toxicology 124(3): 179-92 (1997).

The test system of experiment [2] is MDA-MB-468 (estrogen negative) cancer cells. In words: Inhibition of MDA-MB-468 (estrogen negative) breast cancer cells. Type of experiment: cell-based. The following applies: for IC50, MDA-MB-468 cells / IC50: day 6; for IC50: Homo sapiens, MDA-MB-468, 144 h.
The test system of experiment [3] is PC3 cells. Description: IC50 against PC3 cells. Type of experiment: cell-based. The following applies: Homo sapiens, PC-3.
Experiment [4] relates to LNCap cells. Description: IC50 against LNCap cells. Type of experiment: cell-based. The following applies: Homo sapiens.
Experiment [5] has as its system MCF-7 cells. The following applies: cited from earlier work; for effect on growth of MCF-7 cells at low concentration: at <10 μM.
Setting [6] is: day 6 of incubation, Examples 10 and 11.
The mark [7] stands for this setting: MCF7, Example 8 table, read-out: IC50 against MCF-7 cells.
[8] abbreviates: MCF7, 24 h, 1 day of incubation, Example 8, read-out: IC50, cell viability of MCF-7 cells.
[9] abbreviates: MCF7, 48 h, 2 days of incubation, Example 8, read-out: IC50, cell viability of MCF-7 cells.
Where [10] appears, read: MCF7, 72 h, 3 days of incubation, Example 8, read-out: IC50, cell viability of MCF-7 cells.
Where [11] appears, read: MCF7, 144 h, day 6 of incubation, Examples 10 and 11, read-out: IC50, MCF-7 estrogen positive breast cancer cells.
The mark [12] stands for this setting: MCF7, 8 hours incubation, Example 9, read-out: IC50, MCF7 cells.
[13] abbreviates: MCF7, Example 9, incubation time not given, read-out: IC50, inhibitory effect on MCF7 cells (no significant effect).

For the compound `CC(C(=O)c1c(O)cc(O)cc1O)c1ccc(O)cc1` (centres unmarked) [6-hydroxy-O-Dma], in experiment [1] (setting [6]), the “IC50, MCF-7 estrogen positive breast cancer cells” value is 33 µg/mL (≈ 120 µM). For the same compound, in experiment [2], the “IC50, MDA-MB-468 cells” value stood at 43 µg/mL (≈ 157 µM).
Consider `CC(C(=O)c1ccc(O)cc1O)c1ccc(O)c(O)c1` (centres unmarked) [(V), 1-(2,4,dihydroxyphenyl)-2-(3,4-dihydroxyphenyl)-propan-1-one], for which the IC50 in experiment [1] (setting [7]) is 10 to 20 µg/mL (≈ 36.5 to 72.9 µM).
In the case of `C=C(C(=O)c1ccc(O)cc1O)c1ccc(O)c(O)c1` [(VI), 1-(2,4-di-hydroxyphenyl)-2-(3,4-dihydroxyphenyl)-prop-2-cn-1-one], the IC50 worked out at 3.2 µg/mL (≈ 11.8 µM) in experiment [1] (setting [7]), 6.2 µg/mL (≈ 22.8 µM) in experiment [3] and 7 µg/mL (≈ 25.7 µM) in experiment [4].
With `O=C1c2ccc(O)cc2OCC1c1ccc(O)c(O)c1` (centres unmarked) [(VII), 3′-hydroxy-dihydrodaidzen], the IC50 in experiment [1] (setting [7]) was about 28 µg/mL (≈ 103 µM).
`C=C(C(=O)c1cc(O)c(O)cc1O)c1ccc(O)cc1` [(VIII), 1-(2,4,5-trihydroxyphenyl)-2-(4-hydroxyphenyl)-prop-2-cn-1-one]: the IC50 in experiment [1] (setting [7]) was under 8 µg/mL.
As to `CC(C(=O)c1cc(O)c(O)cc1O)c1ccc(O)cc1` (centres unmarked) [Compound A, 1-(2,4,5-trihydroxyphenyl)-2-(4-hydroxyphenyl)-propan-1-one], in experiment [1] (2.5 micrograms/ml, within 8 hours of incubation and at days 1 and 2), the “effect on growth of MCF-7 cells at low concentration” value (shortened to “effect on growth of MCF-7 cells”) is listed as “inhibited the growth”. The IC50 in experiment [1] (setting [8]) is 6 µg/mL (≈ 21.9 µM); in experiment [1] (setting [9]) it was 6.5 µg/mL (≈ 23.7 µM); in experiment [1] (setting [10]), 7 µg/mL (≈ 25.5 µM); in experiment [1] (setting [11]), 2.1 µg/mL (≈ 7.66 µM); in experiment [1] (setting [12]), 6 µg/mL (≈ 21.9 µM); in experiment [1] (setting [7]), 6 to 10 µg/mL (≈ 21.9 to 36.5 µM). For the same compound, the IC50 in experiment [1] (MCF7, incubations at 24, 48, 72 and 144 hours, Example 9, read-out: IC50, MCF7 cells) was 4 to 7 µg/mL (≈ 14.6 to 25.5 µM); in experiment [2], 6.8 µg/mL (≈ 24.8 µM). Moreover, in experiment [1] (concentrations of 15-40 μg/ml, Example 9), the “inhibition of MCF7 breast cancer cells compared with genistein, daidzein, precursors and metabolites” value is listed as “significant inhibition”. The “inhibition of MCF7 cells at low concentration” value in experiment [1] (Example 9) was “no significant inhibition”. The “proliferative activity of cancer cells at low concentration” value in experiment [1] (MCF7, Example 9) was “no proliferative activity”. In addition, the “times more inhibitive than O-Dma and 6-hydroxy-O-Dma” value in experiment [2] (MDA-MB-468, day 6) is recorded as 3-7 times.
Take `O=c1c(-c2ccc(O)cc2)coc2cc(O)c(O)cc12` [Factor 2, 6,7,4′-trihydroxyisoflavone]: the IC50 in experiment [1] (setting [11]) was 12 µg/mL (≈ 44.4 µM).
In the case of `CC(C(=O)c1ccc(O)cc1O)c1ccc(O)cc1` (centres unmarked) [O-Dma, O-desmethylangolensin], the “IC50, MCF-7 estrogen positive breast cancer cells” value in experiment [1] (setting [6]) was 38 µg/mL (≈ 147 µM). Also, the “IC50, MDA-MB-468 cells” value in experiment [2] turned out to be 20 µg/mL (≈ 77.4 µM).
For `COc1ccc(-c2coc3cc(O)cc(O)c3c2=O)cc1` [biochanin A], the IC50 in experiment [1] (MCF7, 72 and 144 hours incubation, Example 9, read-out: IC50, inhibitory effect on MCF7 cells) fell in the range of 18 to 23 µg/mL (≈ 63.3 to 80.9 µM). For the same compound, the “effect on growth of MCF-7 cells” value in experiment [5] is recorded as “can enhance the growth”.
Turning to `O=c1c(-c2ccc(O)cc2)coc2cc(O)ccc12` [daidzein], the IC50 in experiment [1] (setting [13]) is at least 36 µg/mL. Further, the “effect on growth of MCF-7 cells” value in experiment [5] was “can enhance the growth”.
Regarding `Oc1ccc([C@H]2COc3cc(O)ccc3C2)cc1` [equol], in experiment [1] (setting [13]), the IC50 was at least 36 µg/mL. Besides, in experiment [5], the “effect on growth of MCF-7 cells” value is “can enhance the growth”.
On to `COc1ccc(-c2coc3cc(O)ccc3c2=O)cc1` [formononetin], for which the IC50 in experiment [1] (setting [13]) was at least 36 µg/mL.
For `O=c1c(-c2ccc(O)cc2)coc2cc(O)cc(O)c12` [genistein], the IC50 in experiment [1] (setting [8]) is 32 µg/mL (≈ 118 µM); in experiment [1] (setting [9]), 22 µg/mL (≈ 81.4 µM); in experiment [1] (setting [10]), 15 µg/mL (≈ 55.5 µM); in experiment [1] (MCF7, 144 h, 6 days of incubation, Example 8, read-out: IC50, cell viability of MCF-7 cells), 18 µg/mL (≈ 66.6 µM); in experiment [1] (setting [12]), over 40 µg/mL; in experiment [1] (MCF7, 48 hours incubation, Example 9, read-out: IC50, MCF7 cells) it was 38 µg/mL (≈ 141 µM). In addition, the IC50 is 15 µg/mL (≈ 55.5 µM) in experiment [1] (MCF7, 144 hours incubation, Example 9, read-out: IC50, MCF7 cells); 8.8 µg/mL (≈ 32.6 µM) in experiment [2]; 25 to 33 µM in experiment [5] (induced by 1-(o-chlorophenyl)-1-(p-chlorophenyl)-2,2,2-trichloroethane, 5-octylphenol, 4-nonylphenol, read-out: IC50, inhibition of proliferation of MCF-7 cells induced by environmental chemicals). Also, the “effect on growth of MCF-7 cancer cells at low concentration” value in experiment [1] (concentrations <10 μM, Example 8) is “enhance rather than inhibit the growth”. For the same compound, in experiment [1] (Example 9), the “inhibition of MCF7 cells at low concentration” value was “no significant inhibition”. Moreover, the “proliferative activity of cancer cells at low concentration” value in experiment [1] (MCF7, Example 9) is listed as “some proliferative activity”. In experiment [5], the “effect on growth of MCF-7 cells” value is reported as “can enhance the growth”.
